Reference: patent US8383814B2, “Substituted tetrahydropyran spiro pyrrolidinone and piperidinone, preparation and therapeutic use thereof” (Sanofi, priority 2008, dated 2013)

What was measured:
[1] = target: T1, rhesus (Macacca Mulatta) H3 receptor (Macaca mulatta, UniProt Q865E1); test: Rhesus H3 radioligand binding assay ([3H]-methylhistamine displacement, WGA SPA beads); parameters: species or system rhesus monkey (Macacca Mulatta); settings: [3H]-methylhistamine 2 nM; membranes of Flp-In T-REx 293 cells expressing rhesus H3; Cheng-Prusoff
T1 construct: pcDNA5/FRT/TO (Invitrogen) containing the rhesus monkey (Macacca Mulatta) 445 amino acid H3 receptor
T1 sequence (Q865E1 1-445): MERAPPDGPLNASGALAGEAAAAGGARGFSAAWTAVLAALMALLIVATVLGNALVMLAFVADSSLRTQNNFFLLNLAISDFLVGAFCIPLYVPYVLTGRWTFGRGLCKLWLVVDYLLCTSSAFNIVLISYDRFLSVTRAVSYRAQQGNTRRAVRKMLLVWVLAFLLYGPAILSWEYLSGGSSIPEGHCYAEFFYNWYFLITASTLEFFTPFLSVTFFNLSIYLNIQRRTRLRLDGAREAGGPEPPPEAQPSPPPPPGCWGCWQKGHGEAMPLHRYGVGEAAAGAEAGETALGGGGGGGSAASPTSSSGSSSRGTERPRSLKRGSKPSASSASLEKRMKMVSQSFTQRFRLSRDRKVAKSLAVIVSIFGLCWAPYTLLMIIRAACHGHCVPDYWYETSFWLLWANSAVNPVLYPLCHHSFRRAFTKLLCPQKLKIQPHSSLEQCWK
Protocol: (§1) Rhesus H3 membranes were prepared from the Flp-In T-REx 293 Cell Line (Invitrogen) stably transfected with pcDNA5/FRT/TO (Invitrogen) containing the rhesus monkey (Macacca Mulatta) 445 amino acid H3 receptor. (Genbank #AY231164). Stably transfected cultures were amplified in tissue culture flasks by standard tissue culture methods and induced to express rhesus H3 by exposure to 500 ng/ml tetracycline (Cellgro) for 24 hours. After induction, cells were dissociated from flasks utilizing Cell Stripper (Cellgro). Cells were centrifuged (1K×g, 5 min) and pellet frozen in an ethanol-dry ice bath to disrupt cell membranes. Frozen cell pellet was re-suspended in 5 mM HEPES (pH 7.4, Invitrogen) at 10 ml/1000 cm2 of harvested cells. The cell suspension was drawn through an 18 gauge needle (2-3×) followed by a 23 gauge needle (2-3×) to further disrupt cell membranes. The cell suspension was centrifuged (40K×g, 30 min). Cell membrane pellet was re-suspended in 5 mM HEPES (pH 7.4, Invitrogen) at a final protein concentration of 10 mg/ml. Rhesus H3 membranes were stored under liquid nitrogen prior to use in [3H]-Methylhistamine and GTP S radioligand binding assays.
Rhesus H3 radioligand binding assay was performed using rhesus H3 receptor membranes (prepared as described above), [3H]-Methylhistamine (Perkin Elmer) and WGA SPA beads (wheat germ agglutinin scintillation proximity assay) beads (Amersham). The assay was performed in 96-well Opti-Plates (Packard). Each reaction contained 50 μl rhesus H3 membranes (20-30 μg total protein), 50 μl WGA SPA beads (0.1 μg) and 50 μl of 83 Ci/mmol [^3H]-Methylhistamine (final concentration 2 nM) and 50 μl of tested compound. The compounds of this invention and/or vehicle were diluted with binding buffer from 10 mM DMSO stocks. Assay plates were sealed with TopSeal (Perkin Elmer) and mixed on shaker (25° C., 1 hour). Assay plates were read on TopCount scintillation counter (Packard). Results were analyzed by Hill transformation and Ki values were determined by Cheng-Prusoff equation.

rhesus H3 receptor = test: GTPγS radioligand binding assay: inhibition of rhesus H3 constitutive functional activity in cell membranes (inverse agonism); type: biochemical, rhesus monkey (Macacca Mulatta); parameters: concentration or dose not given beside the values; settings: negative value = below basal level
Protocol: as §1

Compound	Ki [1] [nM]	Inverse Agonism: % inhibition of Basal GTPγS binding in Rhesus H3 (rhesus H3 receptor) [%]
Cc1cc(N2CC[C@H](N3CCC[C@H]3C)C2)ccc1N1CCCC2(CCOCC2)C1=O [Example 28, 2-[2-Methyl-4-((2R,3′S)-2-methyl-[1,3′]bipyrrolidinyl-1′-yl)-phenyl]-9-oxa-2-aza-spiro[5.5]undecan-1-one]	13	−13
Cc1cc(N2CC[C@@H](N3CCC[C@H]3C)C2)ccc1N1CCC2(CCOCC2)C1=O [Example 29, 2-[2-Methyl-4-((2R,3′R)-2-methyl-[1,3′]bipyrrolidinyl-1′-yl)-phenyl]-8-oxa-2-aza-spiro[4.5]decan-1-one]	28	−28
Cc1cc(N2CC[C@@H](N3CCC[C@H]3C)C2)ccc1N1CCCC2(CCOCC2)C1=O [Example 32, 2-[2-Methyl-4-((2R,3′R)-2-methyl-[1,3′]bipyrrolidinyl-1′-yl)-phenyl]-9-oxa-2-aza-spiro[5.5]undecan-1-one]	11	−15
Cc1cc(N2CC[C@@H](N3CCC[C@@H]3C)C2)ccc1N1CCCC2(CCOCC2)C1=O [Example 33]	1.4	−19
C[C@@H]1CCCN1[C@@H]1CCN(c2ccc(N3CCCC4(CCOCC4)C3=O)cc2)C1 [Example 35, 2-[4-((2R,3′R)-2-Methyl-[1,3′]bipyrrolidinyl-1′-yl)-phenyl]-9-oxa-2-aza-spiro[5.5]undecan-1-one]	0.7	−13
C[C@H]1CCCN1[C@@H]1CCN(c2ccc(N3CCCC4(CCOCC4)C3=O)cc2)C1 [Example 36, 2-[4-((2S,3′R)-2-Methyl-[1,3′]bipyrrolidinyl-1′-yl)-phenyl]-9-oxa-2-aza-spiro[5.5]undecan-1-one]	0.26	−10
C[C@H]1CCCN1[C@H]1CCN(c2ccc(N3CCCC4(CCOCC4)C3=O)cc2)C1 [Example 37, 2-[4-((2S,3′S)-2-Methyl-[1,3′]bipyrrolidinyl-1′-yl)-phenyl]-9-oxa-2-aza-spiro[5.5]undecan-1-one]	0.1	−20
C[C@H]1CCCN1[C@@H]1CCN(c2ccc(N3CCCC4(CCOCC4)C3=O)c(F)c2)C1 [Example 40, 2-[2-Fluoro-4-((2S,3′R)-2-Methyl-[1,3′]bipyrrolidinyl-1′-yl)-phenyl]-9-oxa-2-aza-spiro[5.5]undecan-1-one]	0.09	−18

Further compounds by falling Ki [1], results first:

Ki [1] [nM]	Compound	Inverse Agonism: % inhibition of Basal GTPγS binding in Rhesus H3 (rhesus H3 receptor) [%]
6.2	Cc1cc(N2CCC(N3CCCC3C)C2)ccc1N1CCC2(CCOCC2)C1=O (centres unmarked) [Example 31, 2-[2-Methyl-4-(2-methyl-[1,3′]bipyrrolidinyl-1′-yl)-phenyl]-8-oxa-2-aza-spiro[4.5]decan-1-one]	−28
4.3	Cc1cc(N2CC[C@@H](N3CCC[C@@H]3C)C2)ccc1N1CCC2(CCOCC2)C1=O [Example 30]	−29
1.7	C[C@@H]1CCCN1[C@H]1CCN(c2ccc(N3CCCC4(CCOCC4)C3=O)cc2)C1 [Example 34, 2-[4-((2R,3′S)-2-Methyl-[1,3′]bipyrrolidinyl-1′-yl)-phenyl]-9-oxa-2-aza-spiro[5.5]undecan-1-one]	−12
1.3	C[C@@H]1CCCN1[C@H]1CCN(c2ccc(N3CCCC4(CCOCC4)C3=O)c(F)c2)C1 [Example 38, 2-[2-Fluoro-4-((2R,3′S)-2-Methyl-[1,3′]bipyrrolidinyl-1′-yl)-phenyl]-9-oxa-2-aza-spiro[5.5]undecan-1-one]	−22
0.75	C[C@@H]1CCCN1[C@@H]1CCN(c2ccc(N3CCCC4(CCOCC4)C3=O)c(F)c2)C1 [Example 39, 2-[2-Fluoro-4-((2R,3′R)-2-Methyl-[1,3′]bipyrrolidinyl-1′-yl)-phenyl]-9-oxa-2-aza-spiro[5.5]undecan-1-one]	−13
